Laboratory results from patent publication US9018388B2, “Pesticidal compositions and processes related thereto” (Dow AgroSciences LLC, priority 2012, dated 2015).

Key:
[1] = test system: Beet Armyworm (BAW) (Spodoptera exigua); test: Bioassay on beet armyworm (BAW), 128-well diet tray assay; assay type: in vivo; conditions: Spodoptera exigua; Beet armyworm, 50 μg/cm^2; read-out: % Mortality BAW 50 μg/cm^2
Experimental: (§1) Bioassays on Beet Armyworm (“BAW”) and Corn Earworm (“CEW”)
(§2) Certain molecules disclosed in this document were tested against BAW and CEW using procedures described in the following examples. In the reporting of the results, the “BAW & CEW Rating Table” was used (See Table Section).
Bioassays on BAW (Spodoptera exigua)
Bioassays on BAW were conducted using a 128-well diet tray assay. One to five second instar BAW larvae were placed in each well (3 mL) of the diet tray that had been previously filled with 1 mL of artificial diet to which 50 μg/cm^2 of the test compound (dissolved in 50 μL of 90:10 acetone-water mixture) had been applied (to each of eight wells) and then allowed to dry. Trays were covered with a clear self-adhesive cover and held at 25° C., 14:10 light-dark for five to seven days. Percent mortality was recorded for the larvae in each well; activity in the eight wells was then averaged. The results are indicated in the table entitled “Table 5: Biological Results” (See Table Section).

[2] = test system: Corn Earworm (CEW) (Helicoverpa zea); test: Bioassay on corn earworm (CEW), 128-well diet tray assay; assay type: in vivo; conditions: Helicoverpa zea; Corn earworm, 50 μg/cm^2; read-out: % Mortality CEW 50 μg/cm^2
Experimental: as §1, §2
Bioassays on CEW (Helicoverpa zea)
Bioassays on CEW were conducted using a 128-well diet tray assay. One to five second instar CEW larvae were placed in each well (3 mL) of the diet tray that had been previously filled with 1 mL of artificial diet to which 50 μg/cm^2 of the test compound (dissolved in 50 μL of 90:10 acetone-water mixture) had been applied (to each of eight wells) and then allowed to dry. Trays were covered with a clear self-adhesive cover and held at 25° C., 14:10 light-dark for five to seven days. Percent mortality was recorded for the larvae in each well; activity in the eight wells was then averaged. The results are indicated in the table entitled “Table 5: Biological Results” (See Table Section).

SMILES | pest or weed control at 50 µg/cm2, 50 µg/cm2 [1] [%] | pest or weed control at 50 µg/cm2, 50 µg/cm2 [2] [%]
CC(C)c1ccccc1N1C(=O)CS/C1=N\N=C\c1ccc(-c2ncn(-c3ccc(C(F)(F)F)cc3)n2)cc1 [Compound 120C] | 50 to 100 | 50 to 100
Cc1cccc(C)c1/N=C(/N/N=C/c1ccc(-c2ncn(-c3ccc(OC(F)(F)F)cc3)n2)cc1)SCOC(=O)C(C)(C)C [Compound 36C] | 50 to 100 | 50 to 100
FC(F)(F)Oc1ccc(-n2cnc(-c3ccc(/C=N/N=C4\SCCN4c4c(Cl)cccc4C(F)(F)F)cc3)n2)cc1 [Compound 149C] | 50 to 100 | 50 to 100
O=C1CCS/C(=N\N=C\c2ccc(-c3ncn(-c4ccc(OC(F)(F)F)cc4)n3)cc2)N1c1c(Cl)cccc1C(F)(F)F [Compound 228C] | 50 to 100 | 50 to 100
CC(C)Cc1ccccc1N1C(=O)CS/C1=N\N=C\c1ccc(-c2ncn(-c3ccc(OC(F)(F)F)cc3)n2)cc1 [Compound 119C] | 50 to 100 | 50 to 100
CC(C)c1ccccc1N1CCS/C1=N\N=C\c1ccc(-c2ncn(-c3ccc(C(F)(F)F)cc3)n2)cc1 [Compound 134C] | 50 to 100 | 50 to 100
Cc1ccccc1N1C(=O)CS/C1=N\N=C\c1ccc(-c2ncn(-c3ccc(OC(F)(F)F)cc3)n2)cc1 [Compound 113C] | 50 to 100 | 50 to 100
C/C(=N\N=C1/SCC(=O)N1c1ccccc1C(C)C)c1ccc(-c2ncn(-c3ccc(OC(F)(F)F)cc3)n2)cc1 [Compound 122C] | 50 to 100 | 50 to 100
CS/C(=N\c1ccc(N(C)C)cc1)N/N=C/c1ccc(-c2ncn(-c3ccc(OC(F)(F)F)cc3)n2)cc1 [Compound 1C, N-(4-dimethylaminophenyl)-S-methyl-2-{4-[1-(4-trifluoromethoxyphenyl)-1H-[1,2,4]-triazol-3-yl]-benzylidene}-hydrazine-carbothioamide] | 50 to 100 | 50 to 100
Cc1ccccc1N1CCS/C1=N\N=C\c1ccc(-c2ncn(-c3ccc(OC(F)(F)F)cc3)n2)cc1 [Compound 141C] | 50 to 100 | 50 to 100
Cc1cccc(C)c1/N=C(/N/N=C/c1ccc(-c2ncn(-c3ccc(OC(F)(F)F)cc3)n2)cc1)SCOC(=O)CNC(=O)OCc1ccccc1 [Compound 23C] | 50 to 100 | 50 to 100
CC(C)c1ccc(F)cc1N1CS/C1=N\N=C\c1ccc(-c2ncn(-c3ccc(C(F)(C(F)(F)F)C(F)(F)C(F)(F)F)cc3)n2)cc1 (stereo not drawn) [Compound 258C] | 0 to 50 | 50 to 100
CCc1ccccc1N1CCCS/C1=N\N=C\c1ccc(-c2ncn(-c3ccc(OC(F)(F)F)cc3)n2)cc1 [Compound 185C] | 50 to 100 | 50 to 100
Cc1cccc(C)c1N1CCCCS/C1=N\N=C\c1ccc(-c2ncn(-c3ccc(OC(F)(F)F)cc3)n2)cc1 [Compound 211C] | 50 to 100 | 50 to 100
COc1ccc(N2/C(=N/N=C/c3ccc(-c4ncn(-c5ccc(OC(F)(F)F)cc5)n4)cc3)SCCC2C)c(C)c1 (stereo not drawn) [Compound 219C] | 50 to 100 | 50 to 100
CC(/N=C(/N/N=C/c1ccc(-c2ncn(-c3ccc(OC(F)(F)F)cc3)n2)cc1)SCC(=O)O)c1ccccc1 (stereo not drawn) [Compound 54C] | 50 to 100 | 50 to 100
CC1CS/C(=N\N=C\c2ccc(-c3ncn(-c4ccc(OC(F)(F)F)cc4)n3)cc2)N1c1ccccc1C(C)(C)C (stereo not drawn) [Compound 165C] | 50 to 100 | 50 to 100

SMILES | pest or weed control at 50 µg/cm2, 50 µg/cm2 [1] [%] | pest or weed control at 50 µg/cm2, 50 µg/cm2 [2] [%]
CC1CS/C(=N\N=C\c2ccc(-c3ncn(-c4ccc(OC(F)(F)F)cc4)n3)cc2)N(c2ccccc2OC(F)(F)F)C1 (stereo not drawn) [Compound 214C] | 50 to 100 | 50 to 100
CC(C)(C)c1ccccc1N1C(=O)CCS/C1=N\N=C\c1ccc(-c2ncn(-c3ccc(OC(F)(F)F)cc3)n2)cc1 [Compound 232C] | 50 to 100 | 50 to 100
Cc1cs/c(=N\N=C\c2ccc(-c3ncn(-c4ccc(OC(F)(F)F)cc4)n3)cc2)n1-c1c(F)cccc1F [Compound 171C] | 50 to 100 | 50 to 100
Cc1cccc(C)c1/N=C(/N/N=C/c1ccc(-c2ncn(-c3ccc(OC(F)(F)F)cc3)n2)cc1)SCc1ccc(C(=O)O)cc1 [Compound 6C] | 50 to 100 | 50 to 100
CC1CS/C(=N\N=C\c2ccc(-c3ncn(-c4ccc(OC(F)(F)F)cc4)n3)cc2)N1c1c(Cl)cccc1C(F)(F)F (stereo not drawn) [Compound 160C] | 50 to 100 | 50 to 100
Cc1cccc(C)c1/N=C(/N/N=C/c1ccc(-c2ncn(-c3ccc(OC(F)(F)F)cc3)n2)cc1)SCc1ccccc1F [Compound 11C] | 50 to 100 | 50 to 100
Cc1cccc(C)c1/N=C(/N/N=C/c1ccc(-c2ncn(-c3ccc(OC(F)(F)F)cc3)n2)cc1)SCC(=O)N1CCNCC1 [Compound 67C] | 50 to 100 | 50 to 100
Cc1cs/c(=N\N=C\c2ccc(-c3ncn(-c4ccc(OC(F)(F)F)cc4)n3)cc2)n1-c1ccccc1OC(F)(F)F [Compound 170C] | 50 to 100 | 50 to 100
Cc1cccc(C)c1-n1c(C)cs/c1=N\N=C\c1ccc(-c2ncn(-c3ccc(OC(F)(F)F)cc3)n2)cc1 [Compound 175C] | 50 to 100 | 50 to 100
CCC(C)c1ccccc1N1/C(=N/N=C/c2ccc(-c3ncn(-c4ccc(OC(F)(F)F)cc4)n3)cc2)SCCC1C (stereo not drawn) [Compound 220C] | 50 to 100 | 50 to 100
CC1CCS/C(=N\N=C\c2ccc(-c3ncn(-c4ccc(OC(F)(F)F)cc4)n3)cc2)N1c1ccccc1OC(F)(F)F (stereo not drawn) [Compound 216C] | 50 to 100 | 50 to 100
CC(C)c1ccccc1N1/C(=N/N=C/c2ccc(-c3ncn(-c4ccc(OC(F)(F)F)cc4)n3)cc2)SCC1C (racemic) [Compound 155C] | 50 to 100 | 50 to 100
CCc1cccc(C)c1N1CCS/C1=N\N=C\c1ccc(-c2ncn(-c3ccc(OC(F)(F)F)cc3)n2)cc1 [Compound 136C] | 50 to 100 | 50 to 100
Cc1cnccc1N1C(=O)CS/C1=N\N=C\c1ccc(-c2ncn(-c3ccc(OC(F)(F)F)cc3)n2)cc1 [Compound 118C] | 50 to 100 | 50 to 100
CC1S/C(=N\N=C\c2ccc(-c3ncn(-c4ccc(OC(F)(F)F)cc4)n3)cc2)N(c2c(F)cccc2F)C1=O (stereo not drawn) [Compound 131C] | 50 to 100 | 50 to 100
O=C1CS/C(=N\N=C\c2ccc(-c3cn(-c4ccc(OC(F)(F)F)cc4)cn3)cc2)N1c1c(Cl)cccc1Cl [Compound 102C] | 50 to 100 | 50 to 100
